Measured values as given in patent publication US20140171358A1, “ANTIMICROBIAL COMPOSITIONS COMPRISING DGLA AND NEOMYCIN SULFATE AND METHODS OF USE THEREOF” (Dignity Sciences Limited, priority 2012, published 2014).

Key:
Type in all cases: cell-based
[1] = test system: P. acnes; experiment: agar dilution method: growth index and MIC on P. acnes (single compounds and combinations); parameters: key to Growth Index Plate 1 / Growth Index Plate 2 / Growth Index Plate 3 / Growth Index Avg: +++: confluent growth (comparable to control); ++: less confluent growth; +: marked reduction in growth to multiple tiny, single colonies; −: no growth present
Description: Several compounds including fatty acids such as DGLA, 15-OHEPA, and 15-HETrE were tested to determine their capacity to inhibit the growth of P. acnes. In an exemplary method, an agar dilution method was used to determine the minimum inhibitory concentration (MIC) of each tested compound. Briefly, the agar dilution method involved preparing a series of concentrations of each compound (e.g., nicotinamide, benzoyl peroxide, adapalene, metronidazole, DGLA, 15-OHEPA, and 15-HETrE) in a Reinforced Clostridial Agar (RCA) media that facilitates growth of P. acnes under anaerobic conditions. An inoculum of P. acnes was prepared by incubation of P. acnes for approximately seven days at 35-37° C. to achieve a ≧1.0 OD600 inoculum of P. acnes in RCM broth. A portion of this inoculum was then added to the surface of each plate as a 10 μL spot and incubated at 35-37° C. for 72 hours or more. Growth of P. acnes was then observed and compared to control plates in which no compound has been added, and positive inhibition plates prepared with erythromycin. […] The growth of P. acnes in the presence of nicotinamide, benzoyl peroxide, adapalene, metronidazole, DGLA, 15-OHEPA, and 15-HETrE was determined with varying concentrations of the compound (see, Table 2). Next, the MIC was determined as the concentration at which a marked reduction (+) occurs in the appearance of growth on the test plate (as per Clinical and Laboratory Standards Institute M11-A7). The compounds tested singly in Example 1 were tested in combination with one another to determine the capacity of the combination to inhibit the growth of P. acnes. In an exemplary method, the MIC was determined for each of the combination as described in Example 1. Briefly, test combinations included DGLA with nicotinamide, benzoyl peroxide, adapalene, or metronidazole; 15-HETrE with nicotinamide, benzoyl peroxide, adapalene, or metronidazole; and 15-OHEPA with nicotinamide, benzoyl peroxide, adapalene, or metronidazole. The tables below show the growth of P. acnes in the presence of 0.4 or 1.0 mg/mL DGLA with varying concentrations of nicotinamide, benzoyl peroxide, adapalene, or metronidazole (Table 3); the growth of P. acnes in the presence of 0.01 or 0.05 mg/mL 15-HETrE with varying concentrations of nicotinamide, benzoyl peroxide, adapalene, or metronidazole (Table 5); and the growth of P. acnes in the presence of 0.5 or 0.1 mg/mL 15-OHEPA with varying concentrations of nicotinamide, benzoyl peroxide, adapalene, or metronidazole (Table 7).

[2] = test system: C. albicans; experiment: paper disc corrected zone of inhibition (CZOI) on Mueller Hinton agar; details: for Lowest Concentration With Observed Inhibition / Most Effective Concentration Observed: C. albicans
Description: (§1) The compounds tested in Example 1 were tested to determine their capacity to inhibit the growth of a variety of Gram-negative bacteria, Gram-positive bactgeria, fungi and yeast. In an exemplary method, Mueller Hinton agar plates were streaked with 500 μL of a 10^5 colony-forming units/mL culture and allowed to dry for at least one minute. A sterile paper disc (6 mm diameter) was then placed in the middle of each plate using sterile forceps. Twenty microliters of a solution of a known concentration of a test compound in filter-sterilized 95% ethanol were pipetted onto each test plate. Two streaked plates served as positive inhibitory controls and contained 6 mm sterile paper discs with standard tetracycline solutions. Two additional plates served as negative inhibition controls and each contained 6 mm sterile paper discs with 20 μL of filter-sterilized 95% ethanol. Two more plates served as positive growth controls and contained no paper disc or added antibacterial agent. The plates were incubated at 32.5±2° C. for 24±4 hours, after which the corrected zone of inhibition (“CZOI”) was determined as follows: For each plate, the length Y2 and width X2 of the test sample (paper disc) and length Y1 and width X1 of the clear zone were measured (FIG. 1). The CZOI was calculated from these values as shown by the equation below: [formula]

[3] = test system: A. brasiliensis; experiment: as above; details: for Lowest Concentration With Observed Inhibition / Most Effective Concentration Observed: A. brasiliensis
Description: as §1

[4] = test system: S. epidermidis; experiment: as above; details: for Lowest Concentration With Observed Inhibition / Most Effective Concentration Observed: S. epidermidis
Description: as §1

[5] = test system: E. faecalis; experiment: as above; details: for Lowest Concentration With Observed Inhibition / Most Effective Concentration Observed: E. faecalis
Description: as §1

[6] = test system: E. coli; experiment: as above; details: for Lowest Concentration With Observed Inhibition / Most Effective Concentration Observed: E. coli
Description: as §1

[7] = test system: C. striatum; experiment: as above; details: for Lowest Concentration With Observed Inhibition / Most Effective Concentration Observed: C. striatum
Description: as §1

[8] = test system: K. pneumoniae; experiment: as above; details: for Lowest Concentration With Observed Inhibition / Most Effective Concentration Observed: K. pneumoniae
Description: as §1

[9] = test system: S. aureus; experiment: as above; details: for Lowest Concentration With Observed Inhibition / Most Effective Concentration Observed: S. aureus
Description: as §1

[10] = test system: P. aeroginosa; experiment: as above; details: for Lowest Concentration With Observed Inhibition / Most Effective Concentration Observed: P. aeroginosa
Description: as §1

CCCCCC(O)/C=C/C=C\C/C=C\CCCCCCC(=O)O (centres unmarked) [15-HETrE, 15-Hydroxy-eicosa-8(Z),11(Z),13 (E)-trienoic acid]
3.25 mm: Average CZOI ([5]; 0.1 mg/mL) | Average CZOI ([7]; 0.01 mg/mL) | Average CZOI ([7]; 0.1 mg/mL)
3.75 mm: Average CZOI ([5]; 0.005 mg/mL) | Average CZOI ([5]; 0.05 mg/mL)
0.5 mg/mL: Most Effective Concentration Observed [3]
++: Growth Index Avg ([1]; varied compound 0.01 mg/mL) | Growth Index Plate 1 ([1]; varied compound 0.01 mg/mL) | Growth Index Plate 3 ([1]; varied compound 0.01 mg/mL)
1 mm: Average CZOI ([3]; 0.01 mg/mL) | Average CZOI ([4]; 0.05 mg/mL) | Average CZOI ([4]; 0.1 mg/mL) | Average CZOI ([6]; 0.05 mg/mL) | Average CZOI ([6]; 0.5 mg/mL) | Average CZOI ([8]; 0.05 mg/mL) | Average CZOI ([8]; 0.5 mg/mL) | Average CZOI ([9]; 0.5 mg/mL) | Average CZOI ([10]; 0.05 mg/mL) | Average CZOI ([10]; 0.5 mg/mL)
+++: Growth Index Avg ([1]; varied compound 0.00001 mg/mL) | Growth Index Plate 1 ([1]; varied compound 0.00001 mg/mL) | Growth Index Plate 2 ([1]; varied compound 0.00001 mg/mL) | Growth Index Plate 3 ([1]; varied compound 0.00001 mg/mL) | Growth Index Avg ([1]; varied compound 0.0001 mg/mL) | Growth Index Plate 1 ([1]; varied compound 0.0001 mg/mL) | Growth Index Plate 2 ([1]; varied compound 0.0001 mg/mL) | Growth Index Plate 3 ([1]; varied compound 0.0001 mg/mL) | Growth Index Avg ([1]; varied compound 0.001 mg/mL) | Growth Index Plate 1 ([1]; varied compound 0.001 mg/mL) | Growth Index Plate 2 ([1]; varied compound 0.001 mg/mL) | Growth Index Plate 3 ([1]; varied compound 0.001 mg/mL) | Growth Index Plate 2 ([1]; varied compound 0.01 mg/mL)
0.05 mg/mL: Most Effective Concentration Observed [7]
2.5 mm: Average CZOI ([8]; 0.005 mg/mL) | Average CZOI ([9]; 0.01 mg/mL)
2.25 mm: Average CZOI ([3]; 0.1 mg/mL) | Average CZOI ([7]; 0.05 mg/mL)
2 mm: Average CZOI ([2]; 0.005 mg/mL) | Average CZOI ([6]; 0.01 mg/mL) | Average CZOI ([8]; 0.01 mg/mL) | Average CZOI ([9]; 0.005 mg/mL)
0.005 mg/mL: Lowest Concentration With Observed Inhibition [2] | Most Effective Concentration Observed [2] | Lowest Concentration With Observed Inhibition [3] | Lowest Concentration With Observed Inhibition [4] | Lowest Concentration With Observed Inhibition [5] | Lowest Concentration With Observed Inhibition [6] | Lowest Concentration With Observed Inhibition [7] | Lowest Concentration With Observed Inhibition [8] | Most Effective Concentration Observed [8] | Lowest Concentration With Observed Inhibition [9] | Lowest Concentration With Observed Inhibition [10] | Most Effective Concentration Observed [10]
4 mm: Average CZOI ([7]; 0.005 mg/mL)
no effect on its own: effect on growth of P. acnes on its own ([1]; 0.01 mg/ml)
2.75 mm: Average CZOI ([5]; 0.5 mg/mL)
0.75 mm: Average CZOI ([9]; 0.05 mg/mL)
0.01 mg/mL: Most Effective Concentration Observed [4] | Most Effective Concentration Observed [5] | Most Effective Concentration Observed [6] | Most Effective Concentration Observed [9]
3 mm: Average CZOI ([3]; 0.5 mg/mL) | Average CZOI ([4]; 0.01 mg/mL)
1.25 mm: Average CZOI ([2]; 0.05 mg/mL) | Average CZOI ([2]; 0.5 mg/mL) | Average CZOI ([3]; 0.05 mg/mL) | Average CZOI ([6]; 0.1 mg/mL)
1.75 mm: Average CZOI ([2]; 0.01 mg/mL) | Average CZOI ([3]; 0.005 mg/mL) | Average CZOI ([4]; 0.005 mg/mL) | Average CZOI ([4]; 0.5 mg/mL) | Average CZOI ([9]; 0.1 mg/mL)
5.75 mm: Average CZOI ([5]; 0.01 mg/mL)
−: Growth Index Avg ([1]; varied compound 0.05 mg/mL) | Growth Index Plate 1 ([1]; varied compound 0.05 mg/mL) | Growth Index Plate 2 ([1]; varied compound 0.05 mg/mL) | Growth Index Plate 3 ([1]; varied compound 0.05 mg/mL)
1.5 mm: Average CZOI ([2]; 0.1 mg/mL) | Average CZOI ([6]; 0.005 mg/mL) | Average CZOI ([7]; 0.5 mg/mL) | Average CZOI ([8]; 0.1 mg/mL) | Average CZOI ([10]; 0.005 mg/mL) | Average CZOI ([10]; 0.01 mg/mL) | Average CZOI ([10]; 0.1 mg/mL)

CCCCC/C=C\C/C=C\C/C=C\CCCCCCC(=O)O [DGLA, cis-8,11,14-eicosatrienoic acid]
1.4 mg/mL: Most Effective Concentration Observed [2]
no effect on its own: effect on growth of P. acnes on its own ([1]; 0.4 mg/ml)
2.75 mm: Average CZOI ([3]; 1.0 mg/mL) | Average CZOI ([7]; 0.8 mg/mL) | Average CZOI ([7]; 1.4 mg/mL) | Average CZOI ([8]; 1.0 mg/mL)
2.25 mm: Average CZOI ([3]; 1.4 mg/mL)
4 mm: Average CZOI ([3]; 0.8 mg/mL)
3.25 mm: Average CZOI ([4]; 0.8 mg/mL) | Average CZOI ([5]; 0.6 mg/mL)
0.8 mg/mL: Most Effective Concentration Observed [3] | Most Effective Concentration Observed [9]
1.5 mm: Average CZOI ([3]; 0.6 mg/mL) | Average CZOI ([6]; 1.0 mg/mL)
1.75 mm: Average CZOI ([2]; 1.0 mg/mL) | Average CZOI ([3]; 1.2 mg/mL) | Average CZOI ([5]; 1.4 mg/mL) | Average CZOI ([8]; 0.6 mg/mL)
0.5 mm: Average CZOI ([6]; 1.2 mg/mL)
3 mm: Average CZOI ([2]; 1.4 mg/mL) | Average CZOI ([4]; 1.2 mg/mL) | Average CZOI ([5]; 0.8 mg/mL) | Average CZOI ([9]; 0.8 mg/mL) | Average CZOI ([9]; 1.0 mg/mL) | Average CZOI ([9]; 1.2 mg/mL)
1.25 mm: Average CZOI ([8]; 1.4 mg/mL) | Average CZOI ([9]; 0.6 mg/mL)
1.0 mg/mL: Most Effective Concentration Observed [4] | Most Effective Concentration Observed [5] | Most Effective Concentration Observed [6] | Most Effective Concentration Observed [8]
0.4 to 0.6 mg/mL: MIC ([1]; Cutibacterium acnes, compound alone, read-out: MIC (mg/mL) as per P-11-0007 or P-11-0008 Addendum A)
6.5 mm: Average CZOI ([4]; 1.0 mg/mL)
2 mm: Average CZOI ([2]; 1.2 mg/mL) | Average CZOI ([5]; 1.2 mg/mL) | Average CZOI ([7]; 1.0 mg/mL) | Average CZOI ([8]; 0.8 mg/mL) | Average CZOI ([8]; 1.2 mg/mL) | Average CZOI ([9]; 1.4 mg/mL)
1.2 mg/mL: Most Effective Concentration Observed [7]
0.25 mm: Average CZOI ([6]; 1.4 mg/mL)
1 mm: Average CZOI ([2]; 0.6 mg/mL) | Average CZOI ([4]; 1.4 mg/mL) | Average CZOI ([6]; 0.6 mg/mL) | Average CZOI ([6]; 0.8 mg/mL) | Average CZOI ([10]; 0.6 mg/mL) | Average CZOI ([10]; 0.8 mg/mL) | Average CZOI ([10]; 1.0 mg/mL) | Average CZOI ([10]; 1.2 mg/mL) | Average CZOI ([10]; 1.4 mg/mL)
5 mm: Average CZOI ([5]; 1.0 mg/mL)
3.75 mm: Average CZOI ([7]; 0.6 mg/mL)
0.6 mg/mL: Lowest Concentration With Observed Inhibition [2] | Lowest Concentration With Observed Inhibition [3] | Lowest Concentration With Observed Inhibition [4] | Lowest Concentration With Observed Inhibition [5] | Lowest Concentration With Observed Inhibition [6] | Lowest Concentration With Observed Inhibition [7] | Lowest Concentration With Observed Inhibition [8] | Lowest Concentration With Observed Inhibition [9] | Lowest Concentration With Observed Inhibition [10] | Most Effective Concentration Observed [10]
0.75 mm: Average CZOI ([2]; 0.8 mg/mL)
4.75 mm: Average CZOI ([4]; 0.6 mg/mL) | Average CZOI ([7]; 1.2 mg/mL)
